Source: US20160175324A1, “ANTI-ACNE COMPOSITIONS COMPRISING BILE ACID-FATTY ACID CONJUGATES” (GALDERM THERAPEUTICS LTD., priority 2013, published 2016)

Tests used:
[1] = system: human skin fibroblasts; assay: Cholesterol efflux with [3H] cholesterol in fibroblasts; assay type: cell-based; details: 20 hours incubation, compared to untreated cells
Method: (§1) Steamchol was incubated with human skin fibroblasts for 20 hours to measure cholesterol loading in the presence of [^3H] cholesterol. After series of washing and adding efflux containing cholesterol acceptors, medium was collected and centrifuged and cell associated cholesterol was compared to effluxed cholesterol in the presence and absence of the similar FABAC. This research project also included quantification of mRNA of ABCA1 and direct measurement of ABCA1.
(§2) Similarly, cells were pre-incubated with […] cholesterol, washed four times and then placed in an incubation medium with or without Aramchol for 20 hours. Following the incubation, radioactivity was measured separately in the medium and in the cells. Cholesterol efflux percentage was calculated as radioactivity in medium divided by the total radioactivity (cells+medium).

[2] = system: ABCA1; assay: ABCA1 protein concentration in fibroblasts during cholesterol efflux; assay type: cell-based, human; details: efflux in the presence of FABAC, compared to untreated cells
Method: as §1, §2

[3] = system: sebum production; details: background statement; cited from earlier work
[4] = system: Full-thickness Epiderm cultures (EFT-400, MatTek); assay: Cytotoxicity assay (MTT) after topical application to full-thickness skin cultures; assay type: cell-based; details: for Cell Viability: 24-hour exposure, MTT, vs untreated control
Method: Full-thickness Epiderm cultures (EFT-400, MatTek) were used to determine toxicity in response to topical application of a test material (Steamchol).
The test material was provided as a powder. Test solutions were prepared by adding the appropriate amount of powdered material to 1 mL DMSO. Lower concentrations were made by serial dilution with 100% DMSO. The final test material concentrations and treatments were: 2% Steamchol (20,000 ug/mL); 1% Steamchol (10,000 ug/mL); 0.1% Steamchol (1000 ug/mL); 0.01% Steamchol (100 ug/mL); vehicle control (100% DMSO); and untreated control.
Full-thickness skin cultures (EFT-400) were maintained according to MatTek protocol; the cultures were equilibrated at 37° C. and 5% CO2 for 24 hours prior to application of test materials. Test material was applied to the surface of each culture using sterile techniques (10 μL applied to each culture). Two cultures were assigned to each treatment group and the viability percentages presented below are averages of viability of each two cultures. Two EFT cultures served as an untreated control (also referred to as negative control in FIG. 2), and two other EFT cultures served as a positive control (100 μL 1% Triton X-100).
Following a 24-hour incubation period with the test material, cultures were processed for cell toxicity analysis using an MTT [(3-4,5-dimethylthiazole-2-yl) 2,5-diphenyltetrazoliumbromide] assay (reagents purchased from MatTek). Viable tissues converted MTT into a blue formazan salt that was detected by measuring absorbance at a specific wavelength of light (A570). Percent viability was calculated by comparing the A570 reading of the test cultures to the A570 of the untreated control culture, using the following formula: [Treated A570/Untreated A570]*100

[5] = system: KRT10 (keratin 10); assay: Taqman gene expression in Epiderm FT skin culture, KRT10; assay type: cell-based; details: 0.5% (5000 μg/mL) in DMSO, 24 hours post-application, vs DMSO control
Method: (§3) A full-thickness in vitro skin culture model, Epiderm FT (MatTek, MA), was treated with Steamchol. A non-cytotoxic concentration of Steamchol in DMSO (0.5%, 5000 μg/mL) was applied to the surface of each test culture and cells were collected 24 hours post-application. Control cells were similarly treated with DMSO without Steamchol. Tissues were collected in RNAlater for gene expression analysis. Gene expression was analyzed using validated Taqman gene expression assays in a Taqman Low Density Array (TLDA) format. 94 genes that regulate a variety of known functions in skin were analyzed, including the ABCA1 and SCD1 genes. The experimental set up was conducted in a 96-well format using validated Taqman gene expression assays. Each gene was assayed in duplicates. Statistics were carried out using the StatMiner software v4.2 (unpaired t-tests, p<0.05, N=4) to compare the 0.5% Steamchol group to the DMSO control group.

[6] = system: KRT1 (keratin 1); assay: Taqman gene expression in Epiderm FT skin culture, KRT1; assay type: cell-based; details: 0.5% (5000 μg/mL) in DMSO, 24 hours post-application, vs DMSO control
Method: as §3

[7] = system: ABCA1; assay: Taqman gene expression in Epiderm FT skin culture, ABCA1 mRNA; assay type: cell-based; details: 0.5% (5000 μg/mL) in DMSO, 24 hours post-application, vs DMSO control
Method: as §3

SMILES | Cholesterol efflux in fibroblasts [1] | ABCA1 protein concentration increase [2] | Decrease of sebum production [3] | Cell Viability ([4]; 0.01% Steamchol (100 ug/mL) in DMSO) [%] | Cell Viability ([4]; 0.1% Steamchol (1000 ug/mL) in DMSO) [%] | Cell Viability ([4]; 1% Steamchol (10,000 ug/mL) in DMSO) [%] | Cell Viability ([4]; 2% Steamchol (20,000 ug/mL) in DMSO) [%] | Toxicity in previous viability assay ([4]; 40.0, 13.3, 4.4, 1.5 ug/mL, data not shown) | Cell viability compared to the untreated control ([4]; all dilutions tested (0.01%-2%), 24 hours) [%] | Fold Change of keratin 10 gene expression [5] | Fold Change of keratin 1 gene expression [6] | Change in mRNA levels of ABCA1 [7]
CCCCCCCCCCCCCCCCCCCC(=O)N[C@H]1CC[C@@]2(C)[C@@H](C1)C[C@@H](O)[C@@H]1[C@@H]2C[C@H](O)[C@]2(C)[C@@H]([C@H](C)CCC(=O)O)CC[C@@H]12 [Aramchol, 3β-arachidylamido-7α,12α, dihidroxy-5β-cholan-24-oic acid] | significantly enhanced | approximately 2 fold |  |  |  |  |  |  |  |  |  | 
CC1=C(/C=C/C(C)=C/C=C/C(C)=C\C(=O)O)C(C)(C)CCC1 [Isotretinoin] |  |  | up to 90% |  |  |  |  |  |  |  |  | 
CCCCCCCCCCCCCCCCCC(=O)N[C@H]1CC[C@@]2(C)[C@@H](C1)C[C@@H](O)[C@@H]1[C@@H]2C[C@H](O)[C@]2(C)[C@@H]([C@H](C)CCC(=O)O)CC[C@@H]12 [Steamchol, 3β-stearylamido-7α,12α, dihidroxy-5β-cholan-24-oic acid] | significantly enhanced | approximately 2 fold |  | 100.41 | 99.98 | 96.88 | 93.89 | no toxicity was observed | ~100 | −2.60 | −2.49 | No significant change
